Earlier results in US20220193441A1, “ENERGY AUGMENTATION STRUCTURES, EMITTERS OR COLLECTORS, FOR USE IN NON-INVASIVE IN-SITU PHOTOBIOMODULATION” (IMMUNOLIGHT, LLC, priority 2019, published 2022).
Values belong to the compound of their own block, whether it stands above or below them.

Legend:
[1] = clinical use
tumors = conditions: in vivo
[2] = tested on: epidermal growth factor receptor; conditions: higher UVA light doses, with versus without trimethyl psoralen

- duration of skin photosensitivity [1]: approximately 2 weeks
Structure (SMILES): Oc1cccc(-c2c3nc(c(-c4cccc(O)c4)c4ccc([nH]4)c(-c4cccc(O)c4)c4nc(c(-c5cccc(O)c5)c5ccc2[nH]5)CC4)C=C3)c1 [Foscan, Tetra (m-hydroxyphenyl) chlorin]

Structure (SMILES): CC(=O)[O-].CC(=O)[O-].CCc1c(CC)c2cc3nc(cnc4cc(OCCOCCOCCOC)c(OCCOCCOCCOC)cc4ncc4nc(cc1[n-]2)C(CCCO)=C4C)C(C)=C3CCCO.O.[Lu+3] [Lutetium texaphryin, Motexafin lutetium]
- selectivity for tumors compared to normal tissues (tumors): one of the greatest reported selectivities for tumors

Structure (SMILES): Cc1cc2cc3c(C)cc(=O)oc3c(C)c2o1 [trimethyl psoralen]
- inhibition of 125I-EGF specific binding [2]: higher efficiency
